Activity calls are given as the source filed them. The calls are words filed in the database; no cut-off is given here.
How the values were obtained:
[1] = Selectivity index, ratio of CC50 for cytotoxicty against MDCK cells to EC50 for antiviral activity against Influenza A virus H3N2 (A/Aichi/2/68) infected in dog MDCK cells; assay type: toxicity, cell-based; conditions: read-out: Selectivity Index
[2] = Tmax in CD-1 mouse at 15 mg/kg, po measured upto 24 hrs by LC-MS/MS analysis; assay type: ADME, organism-based; conditions: in vivo
[3] = Cmax in CD-1 mouse at 1 mg/kg, iv measured upto 24 hrs by LC-MS/MS analysis; assay type: ADME, organism-based; conditions: in vivo
[4] = Half life in CD-1 mouse at 1 mg/kg, iv measured upto 24 hrs by LC-MS/MS analysis; assay type: ADME, organism-based; conditions: in vivo
[5] = Metabolic stability in human liver microsomes assessed as half life at 1 uM in presence of NADPH by LC-MS/MS analysis; assay type: ADME, Microsome; conditions: time 60 min
Influenza A virus [6] = assay: Antiviral activity against Influenza A virus H1N1 infected in dog MDCK cells assessed as reduction in polymerase acidic protein expression at 10 to 20 nM by Western blot analysis; assay type: functional, organism-based; conditions: dose 10-20 nM
[7] = Oral bioavailability in CD-1 mouse at 15 mg/kg measured upto 24 hrs by LC-MS/MS analysis; assay type: ADME, organism-based; conditions: in vivo
[8] = Metabolic stability in mouse liver microsomes assessed as half life at 1 uM in presence of NADPH by LC-MS/MS analysis; assay type: ADME, Microsome; conditions: time 60 min
[9] = Cmax in CD-1 mouse at 15 mg/kg, po measured upto 24 hrs by LC-MS/MS analysis; assay type: ADME, organism-based; conditions: in vivo
Influenza A virus [10] = assay: Antiviral activity against Influenza A virus H1N1(A/Puetro Rico/8/34) infected in dog MDCK cells assessed as reduction in cytopathic effect incubated for 2 days; assay type: functional, organism-based; conditions: 48 h
[11] = AUC (0 to infinity) in CD-1 mouse at 1 mg/kg, iv measured upto 24 hrs by LC-MS/MS analysis; assay type: ADME, organism-based; conditions: in vivo
Influenza A virus [12] = assay: Potency index, ratio of baloxavir EC50 to test compound EC50 for antiviral activity against Influenza A virus H3N2 (A/Aichi/2/68) infected in dog MDCK cells assessed as reduction in cytopathic effect incubated for 2 days; assay type: functional; conditions: time 2 day
Influenza A virus [13] = assay: Antiviral activity against Influenza A virus H1N1(A/FM/1/47) infected in dog MDCK cells assessed as reduction in cytopathic effect incubated for 2 days; assay type: functional, organism-based; conditions: 48 h
[14] = MRT (0 to infinity) in CD-1 mouse at 1 mg/kg, iv measured upto 24 hrs by LC-MS/MS analysis; assay type: ADME, organism-based; conditions: in vivo
Influenza B virus = assay: Antiviral activity against Influenza B virus IBV/Lee/40 infected in dog MDCK cells assessed as reduction in cytopathic effect incubated for 2 days by TCID50 method; assay type: functional, organism-based; conditions: IBV/Lee/40, MDCK, 48 h
HEK293T [15] = assay: Inhibition of Influenza A virus RdRp transfected in HEK293T co-expressing PB1/PB2/PA/NP/firefly luciferase/Renilla luciferase incubated for 24 hrs relative to control; assay type: cell-based; conditions: dose or concentration not given here
[16] = Metabolic stability in human liver microsomes assessed as intrinsic clearance at 1 uM incubated for 60 mins in presence of NADPH by LC-MS/MS analysis; assay type: ADME, Microsome; conditions: 1 h
[17] = Metabolic stability in mouse liver microsomes assessed as intrinsic clearance at 1 uM incubated for 60 mins in presence of NADPH by LC-MS/MS analysis; assay type: ADME, Microsome; conditions: 1 h
[18] = Tmax in CD-1 mouse at 1 mg/kg, iv measured upto 24 hrs by LC-MS/MS analysis; assay type: ADME, organism-based; conditions: in vivo
Influenza A virus [19] = assay: Antiviral activity against Influenza A virus H1N1 infected in dog MDCK cells assessed as disruption of nuclear protein expression at 10 to 20 nM by Western blot analysis; assay type: functional, organism-based; conditions: dose 10-20 nM
Influenza A virus [20] = assay: Antiviral activity against Influenza A virus H3N2 (A/Aichi/2/68) infected in dog MDCK cells assessed as reduction in cytopathic effect incubated for 2 days; assay type: functional, organism-based; conditions: 48 h
[21] = MRT (0 to infinity) in CD-1 mouse at 15 mg/kg, po measured upto 24 hrs by LC-MS/MS analysis; assay type: ADME, organism-based; conditions: in vivo
[22] = Cytotoxicity against dog MDCK cells assessed as reduction in cell viability incubated for 2 days by CCK-8 assay; assay type: toxicity, cell-based, Canis lupus familiaris; conditions: time 2 day
[23] = Half life in CD-1 mouse at 15 mg/kg, po measured upto 24 hrs by LC-MS/MS analysis; assay type: ADME, organism-based; conditions: in vivo
[24] = AUC (0 to infinity) in CD-1 mouse at 15 mg/kg, po measured upto 24 hrs by LC-MS/MS analysis; assay type: ADME, organism-based; conditions: in vivo
HEK293T [25] = assay: Inhibition of Influenza A virus RdRp transfected in HEK293T co-expressing PB1/PB2/PA/NP/firefly luciferase/Renilla luciferase at 1 nM incubated for 24 hrs relative to control; assay type: cell-based

O=C1c2c(O)c(=O)ccn2N([C@H]2c3ccc(F)cc3COc3ccccc32)[C@@H]2COCCN12
selectivity ratio [1]: > 64100
Tmax [2]: 1.33 h
Cmax [3]: 211 ng/mL
half-life [4]: 2.6 h
half-life at 1 µM [5]: 11.6 h
Activity (Influenza A virus [6]): Active
bioavailability [7]: 54.3%
half-life at 1 µM [8]: 2.45 h
Cmax [9]: 548 ng/mL
EC50 (Influenza A virus [10]): 3.32 nM
AUC(0-inf) [11]: 343 ng·h/mL
Ratio (Influenza A virus [12]): >5
EC50 (Influenza A virus [13]): 1.65 nM
MRT inf [14]: 2.91 h
EC50 (Influenza B virus): 2.12 nM
inhibition (HEK293T [15]): 82.6%
CLint [16]: 2 µL/min/mg
CLint [17]: 9.4 µL/min/mg
Tmax [18]: 4.8 min
Activity (Influenza A virus [19]): Active
EC50 (Influenza A virus [20]): 0.78 nM
MRT inf [21]: 4 h
CC50 at 48 h [22]: > 50000 nM
half-life [23]: 2.83 h
AUC(0-inf) [24]: 2790 ng·h/mL

O=C1c2c(O)c(=O)ccn2N([C@@H]2c3ccc(F)cc3COc3ccccc32)[C@@H]2COCCN12
selectivity ratio [1]: 14100
EC50 (Influenza A virus [20]): 2.5 nM
CC50 at 48 h [22]: 35200 nM

CCOC(=O)Cc1ccc2c(c1)[C@@H](N1[C@@H]3COCCN3C(=O)c3c(O)c(=O)ccn31)c1ccccc1CO2
selectivity ratio [1]: > 71
EC50 (Influenza A virus [20]): 705 nM
CC50 at 48 h [22]: > 50000 nM

O=C1c2c(O)c(=O)ccn2N([C@@H]2c3ccccc3OCc3c2ccc(F)c3F)[C@@H]2COCCN12
selectivity ratio [1]: 11400
EC50 (Influenza A virus [20]): 1.68 nM
CC50 at 48 h [22]: 19100 nM

O=C1c2c(O)c(=O)ccn2N([C@@H]2c3ccccc3OCc3c(F)cccc32)[C@@H]2COCCN12
selectivity ratio [1]: > 5940
EC50 (Influenza A virus [20]): 8.41 nM
CC50 at 48 h [22]: > 50000 nM

O=C1c2c(O)c(=O)ccn2N([C@H]2c3ccccc3OCc3c(Cl)cccc32)[C@@H]2COCCN12
selectivity ratio [1]: 23200
EC50 (Influenza A virus [20]): 0.67 nM
CC50 at 48 h [22]: 15600 nM

O=C1c2c(O)c(=O)ccn2N([C@@H]2c3ccccc3COc3cc(C(F)(F)F)ccc32)[C@@H]2COCCN12
selectivity ratio [1]: > 2910
EC50 (Influenza A virus [20]): 17.2 nM
CC50 at 48 h [22]: > 50000 nM

O=C1c2c(O)c(=O)ccn2N([C@H]2c3ccccc3OCc3c2ccc(F)c3F)[C@@H]2COCCN12
selectivity ratio [1]: 15900
EC50 (Influenza A virus [20]): 2.08 nM
CC50 at 48 h [22]: 33000 nM

O=C1c2c(O)c(=O)ccn2N([C@H]2c3ccccc3OCc3c(F)cccc32)[C@@H]2COCCN12
selectivity ratio [1]: > 6390
EC50 (Influenza A virus [20]): 7.82 nM
CC50 at 48 h [22]: > 50000 nM

O=C1c2c(O)c(=O)ccn2N([C@@H]2c3ccccc3COc3cc(F)ccc32)[C@@H]2COCCN12
selectivity ratio [1]: > 12800
EC50 (Influenza A virus [20]): 3.91 nM
CC50 at 48 h [22]: > 50000 nM

O=C(O)Cc1ccccc1Nc1c(Cl)cccc1Cl [DICLOFENAC]
half-life at 1 µM [5]: 0.0938 h
half-life at 1 µM [8]: 0.672 h
CLint [16]: 246 µL/min/mg
CLint [17]: 34.4 µL/min/mg

N#Cc1ccc2c(c1)COc1ccccc1[C@@H]2N1[C@@H]2COCCN2C(=O)c2c(O)c(=O)ccn21
selectivity ratio [1]: > 5690
EC50 (Influenza A virus [20]): 8.79 nM
CC50 at 48 h [22]: > 50000 nM

O=C1c2c(O)c(=O)ccn2N([C@@H]2c3ccccc3OCc3c(Cl)cccc32)[C@@H]2COCCN12
selectivity ratio [1]: 31600
Tmax [2]: 2.67 h
Cmax [3]: 258 ng/mL
half-life [4]: 1.99 h
half-life at 1 µM [5]: 2.57 h
Activity (Influenza A virus [6]): Active
bioavailability [7]: 31.5%
half-life at 1 µM [8]: 2.27 h
Cmax [9]: 222 ng/mL
EC50 (Influenza A virus [10]): 14.4 nM
AUC(0-inf) [11]: 355 ng·h/mL
Ratio (Influenza A virus [12]): >5
EC50 (Influenza A virus [13]): 6.1 nM
MRT inf [14]: 2.57 h
EC50 (Influenza B virus): 2.32 nM
inhibition (HEK293T [15]): 72%
CLint [16]: 9 µL/min/mg
CLint [17]: 10.2 µL/min/mg
Tmax [18]: 4.8 min
Activity (Influenza A virus [19]): Active
EC50 (Influenza A virus [20]): 0.78 nM
MRT inf [21]: 6.25 h
CC50 at 48 h [22]: 24600 nM
half-life [23]: 4.45 h
AUC(0-inf) [24]: 1680 ng·h/mL

O=C1c2c(O)c(=O)ccn2N([C@H]2c3ccccc3COc3ccccc32)[C@@H]2COCCN12
selectivity ratio [1]: > 47200
EC50 (Influenza A virus [20]): 1.06 nM
CC50 at 48 h [22]: > 50000 nM

O=C1c2c(O)c(=O)ccn2N([C@@H]2c3ccccc3SCc3c2ccc(F)c3F)[C@@H]2COCCN12 [BALOXAVIR]
Tmax [2]: 1.67 h
Cmax [3]: 205 ng/mL
half-life [4]: 2.8 h
half-life at 1 µM [5]: 3.03 h
half-life at 1 µM [8]: 2.68 h
Cmax [9]: 523 ng/mL
inhibition (HEK293T [25]): 76.9%
EC50 (Influenza A virus [10]): 1.85 nM
MRT inf [14]: 3 h
EC50 (Influenza B virus): 2.02 nM
CLint [16]: 7.6 µL/min/mg
CLint [17]: 8.6 µL/min/mg
Tmax [18]: 4.8 min
MRT inf [21]: 4.63 h
CC50 at 48 h [22]: 9300 nM
half-life [23]: 3.78 h

O=C1c2c(O)c(=O)ccn2N([C@@H]2c3ccccc3COc3c2ccc(F)c3F)[C@@H]2COCCN12
selectivity ratio [1]: 13500
EC50 (Influenza A virus [20]): 1.64 nM
CC50 at 48 h [22]: 22100 nM

CCOC(=O)Cc1ccc2c(c1)[C@H](N1[C@@H]3COCCN3C(=O)c3c(O)c(=O)ccn31)c1ccccc1CO2
selectivity ratio [1]: > 1390
EC50 (Influenza A virus [20]): 36 nM
CC50 at 48 h [22]: > 50000 nM

O=C1c2c(O)c(=O)ccn2N([C@H]2c3ccccc3COc3cc(F)ccc32)[C@@H]2COCCN12
selectivity ratio [1]: > 42700
EC50 (Influenza A virus [20]): 1.17 nM
CC50 at 48 h [22]: > 50000 nM

O=C1c2c(O)c(=O)ccn2N([C@H]2c3ccccc3COc3cc(C(F)(F)F)ccc32)[C@@H]2COCCN12
selectivity ratio [1]: > 2010
EC50 (Influenza A virus [20]): 24.9 nM
CC50 at 48 h [22]: > 50000 nM

N#Cc1ccc2c(c1)COc1ccccc1[C@H]2N1[C@@H]2COCCN2C(=O)c2c(O)c(=O)ccn21
selectivity ratio [1]: > 5300
EC50 (Influenza A virus [20]): 9.43 nM
CC50 at 48 h [22]: > 50000 nM

O=C1c2c(O)c(=O)ccn2N([C@@H]2c3ccccc3COc3ccccc32)[C@@H]2COCCN12
selectivity ratio [1]: > 28600
EC50 (Influenza A virus [20]): 1.75 nM
CC50 at 48 h [22]: > 50000 nM

O=C1c2c(O)c(=O)ccn2N([C@H]2c3ccccc3COc3c2ccc(F)c3F)[C@@H]2COCCN12
selectivity ratio [1]: 6460
EC50 (Influenza A virus [20]): 5.16 nM
CC50 at 48 h [22]: 33300 nM

From ChEMBL document CHEMBL6092174, “Synthesis and anti-influenza virus activity of substituted dibenzoxepine-based baloxavir derivatives” (Eur J Med Chem, 2024)
